Measured values: PubChem BioAssay (NCI)
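Tested at 5 concentrations; 48 h exposure; 96-well plates; endpoints linearly interpolated, else capped at highest concentration. TGI denotes the concentration required for complete inhibition of growth.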

How the values were obtained:
Assay in all cases: NCI-60 cell line screen, 48 h
MOLT-4 leukemia = test system: MOLT-4 leukemia
UO-31 renal = test system: UO-31 renal
MALME-3M melanoma = test system: MALME-3M melanoma
HS 578T breast = test system: HS 578T breast
SF-539 CNS = test system: SF-539 CNS
DU-145 prostate = test system: DU-145 prostate
SN12C renal = test system: SN12C renal
NCI-H226 lung = test system: NCI-H226 lung
PC-3 prostate = test system: PC-3 prostate
HCC-2998 colon = test system: HCC-2998 colon
K-562 leukemia = test system: K-562 leukemia
HCT-15 colon = test system: HCT-15 colon
OVCAR-4 ovarian = test system: OVCAR-4 ovarian
HL-60(TB) leukemia = test system: HL-60(TB) leukemia
MDA-N = test system: MDA-N
SNB-19 CNS = test system: SNB-19 CNS
NCI-H23 lung = test system: NCI-H23 lung
SR leukemia = test system: SR leukemia
NCI-H460 lung = test system: NCI-H460 lung
MDA-MB-231 breast = test system: MDA-MB-231 breast
SW-620 colon = test system: SW-620 colon
MDA-MB-435 = test system: MDA-MB-435
SK-MEL-5 melanoma = test system: SK-MEL-5 melanoma
EKVX NSCLC = test system: EKVX NSCLC
HOP-92 NSCLC = test system: HOP-92 NSCLC
BT-549 breast = test system: BT-549 breast
A549 NSCLC = test system: A549 NSCLC
IGROV1 ovarian = test system: IGROV1 ovarian
HOP-62 NSCLC = test system: HOP-62 NSCLC
SK-MEL-2 melanoma = test system: SK-MEL-2 melanoma
SNB-75 CNS = test system: SNB-75 CNS
UACC-62 melanoma = test system: UACC-62 melanoma
RPMI-8226 leukemia = test system: RPMI-8226 leukemia
786-0 renal = test system: 786-0 renal
MCF7 breast = test system: MCF7 breast
M14 melanoma = test system: M14 melanoma
TK-10 renal = test system: TK-10 renal
RXF 393 renal = test system: RXF 393 renal
COLO 205 colon = test system: COLO 205 colon
UACC-257 melanoma = test system: UACC-257 melanoma
OVCAR-8 ovarian = test system: OVCAR-8 ovarian
OVCAR-5 ovarian = test system: OVCAR-5 ovarian
SK-OV-3 ovarian = test system: SK-OV-3 ovarian
ACHN renal = test system: ACHN renal
CAKI-1 renal = test system: CAKI-1 renal
HT29 colon = test system: HT29 colon
NCI/ADR-RES ovarian = test system: NCI/ADR-RES ovarian
NCI-H522 lung = test system: NCI-H522 lung
U251 CNS = test system: U251 CNS
A498 renal = test system: A498 renal
OVCAR-3 ovarian = test system: OVCAR-3 ovarian
CCRF-CEM leukemia = test system: CCRF-CEM leukemia
KM12 colon = test system: KM12 colon
HCT-116 colon = test system: HCT-116 colon
SF-295 CNS = test system: SF-295 CNS
LOX IMVI melanoma = test system: LOX IMVI melanoma
SF-268 CNS = test system: SF-268 CNS
SK-MEL-28 melanoma = test system: SK-MEL-28 melanoma
T-47D breast = test system: T-47D breast

Work on C[n+]1c(-c2ccc(/C=N\NC(=O)c3ccc(C(=O)N/N=C/c4ccc(-c5cn6ccsc6[n+]5C)cc4)cc3)cc2)cn2ccsc21 yielded a TGI (MOLT-4 leukemia) of 54.1 µM, a TGI (UO-31 renal) of 32.3 µM and a TGI (MALME-3M melanoma) of 47.7 µM. The TGI (HS 578T breast) was 54.7 µM, the TGI (SF-539 CNS) was 56.1 µM and the TGI (DU-145 prostate) was 35 µM. For the same molecule, the TGI (SN12C renal) was 43.8 µM, the TGI (NCI-H226 lung) was 44.1 µM and the TGI (PC-3 prostate) was 41.1 µM. The TGI (HCC-2998 colon) was 58.4 µM, the TGI (K-562 leukemia) was greater than 100 µM and the TGI (HCT-15 colon) was 37.8 µM. For the same molecule, the TGI (OVCAR-4 ovarian) was 57.8 µM, the TGI (HL-60(TB) leukemia) was 43.8 µM and the TGI (MDA-N) was 78.3 µM. It also gave a TGI (SNB-19 CNS) of 51.9 µM, a TGI (NCI-H23 lung) of 50.9 µM and a TGI (SR leukemia) of 85.6 µM. It also gave a TGI (NCI-H460 lung) of 42.1 µM, a TGI (MDA-MB-231 breast) of 42.1 µM and a TGI (SW-620 colon) of 40 µM. For the same molecule, the TGI (MDA-MB-435) was 37.7 µM, the TGI (SK-MEL-5 melanoma) was 34 µM and the TGI (EKVX NSCLC) was 34.3 µM. It also gave a TGI (HOP-92 NSCLC) of 36.4 µM, a TGI (BT-549 breast) of 42.7 µM and a TGI (A549 NSCLC) of 57.8 µM. For the same molecule, the TGI (IGROV1 ovarian) was 40.7 µM, the TGI (HOP-62 NSCLC) was 35.1 µM and the TGI (SK-MEL-2 melanoma) was 75.6 µM. It also gave a TGI (SNB-75 CNS) of 46.7 µM, a TGI (UACC-62 melanoma) of 47.1 µM and a TGI (RPMI-8226 leukemia) of 55 µM. It also gave a TGI (786-0 renal) of 36.8 µM, a TGI (MCF7 breast) of 47.9 µM and a TGI (M14 melanoma) of 44.9 µM. The TGI (TK-10 renal) was 40.3 µM, the TGI (RXF 393 renal) was 53.5 µM and the TGI (COLO 205 colon) was 54.3 µM. For the same molecule, the TGI (UACC-257 melanoma) was 54.9 µM, the TGI (OVCAR-8 ovarian) was 40.8 µM and the TGI (OVCAR-5 ovarian) was 36.3 µM. It also gave a TGI (SK-OV-3 ovarian) of 74.6 µM, a TGI (ACHN renal) of 33.3 µM and a TGI (CAKI-1 renal) of 41 µM. It also gave a TGI (HT29 colon) of 36 µM, a TGI (NCI/ADR-RES ovarian) of 41.1 µM and a TGI (NCI-H522 lung) of 60.6 µM. For the same molecule, the TGI (U251 CNS) was 48.9 µM, the TGI (A498 renal) was 33 µM and the TGI (OVCAR-3 ovarian) was 28.5 µM. It also gave a TGI (CCRF-CEM leukemia) greater than 100 µM and a TGI (KM12 colon) of 58.2 µM.

Work on CC1(C)O[C@@H](CP(c2ccccc2)c2ccccc2)[C@H](CP(c2ccccc2)c2ccccc2)O1 yielded a TGI (MOLT-4 leukemia) greater than 100 µM, a TGI (MALME-3M melanoma) of 20.9 µM and a TGI (SF-539 CNS) of 21.1 µM. The TGI (DU-145 prostate) was greater than 100 µM, the TGI (SN12C renal) was 18.7 µM and the TGI (NCI-H226 lung) was 51.1 µM. The TGI (HCT-15 colon) was 44.5 µM, the TGI (HCT-116 colon) was 20.9 µM and the TGI (OVCAR-4 ovarian) was greater than 100 µM. For the same molecule, the TGI (MDA-N) was 11.5 µM, the TGI (SF-295 CNS) was 57.7 µM and the TGI (SNB-19 CNS) was 72.2 µM. It also gave a TGI (NCI-H23 lung) of 14.6 µM, a TGI (NCI-H460 lung) greater than 100 µM and a TGI (MDA-MB-231 breast) of 31.9 µM. It also gave a TGI (LOX IMVI melanoma) of 17.4 µM, a TGI (SW-620 colon) of 38.3 µM and a TGI (MDA-MB-435) of 52.4 µM. The TGI (SK-MEL-5 melanoma) was 19.4 µM, the TGI (EKVX NSCLC) was 29.4 µM and the TGI (HOP-92 NSCLC) was 27.1 µM. It also gave a TGI (BT-549 breast) of 9.02 µM, a TGI (A549 NSCLC) of 85.7 µM and a TGI (IGROV1 ovarian) of 16.5 µM. The TGI (HOP-62 NSCLC) was 44.6 µM, the TGI (SF-268 CNS) was 25.3 µM and the TGI (SNB-75 CNS) was 27.9 µM. The TGI (RPMI-8226 leukemia) was 59.1 µM, the TGI (786-0 renal) was 22.8 µM and the TGI (M14 melanoma) was 22.7 µM. For the same molecule, the TGI (TK-10 renal) was 87 µM, the TGI (RXF 393 renal) was 26.9 µM and the TGI (COLO 205 colon) was 12.4 µM. The TGI (UACC-257 melanoma) was 30.7 µM, the TGI (SK-MEL-28 melanoma) was 28 µM and the TGI (OVCAR-8 ovarian) was 20.5 µM. The TGI (OVCAR-5 ovarian) was 54.7 µM, the TGI (SK-OV-3 ovarian) was greater than 100 µM and the TGI (ACHN renal) was greater than 100 µM. It also gave a TGI (CAKI-1 renal) greater than 100 µM, a TGI (HT29 colon) of 47.7 µM and a TGI (NCI/ADR-RES ovarian) of 36 µM. It also gave a TGI (NCI-H522 lung) of 12.8 µM, a TGI (T-47D breast) of 29.8 µM and a TGI (U251 CNS) of 20.2 µM. The TGI (A498 renal) was 39.1 µM, the TGI (OVCAR-3 ovarian) was 33.6 µM and the TGI (CCRF-CEM leukemia) was greater than 100 µM. It also gave a TGI (KM12 colon) of 54.7 µM.
